# Data reported in PubChem BioAssay (NCI).
#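 The compound was tested at five concentrations on cells cultured in 96-well plates, with a 48-hour exposure period. The concentration for 50% growth inhibition is given as GI50. TGI denotes the concentration required for complete inhibition of growth.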
# What was measured:
# Assay in all cases: NCI anticancer screen, dose series, 48 h
# [1] = tested on: HT29 colon
# [2] = tested on: 786-0 renal
# [3] = tested on: KM12 colon
# [4] = tested on: SK-OV-3 ovarian
# [5] = tested on: IGROV1 ovarian
# [6] = tested on: BT-549 breast
# [7] = tested on: MOLT-4 leukemia
# [8] = tested on: SNB-19 CNS
# [9] = tested on: HOP-92 NSCLC
# [10] = tested on: A549 NSCLC
# [11] = tested on: ACHN renal
# [12] = tested on: HCT-116 colon
# [13] = tested on: OVCAR-4 ovarian
# [14] = tested on: SF-268 CNS
# [15] = tested on: MCF7 breast
# [16] = tested on: SK-MEL-5 melanoma
# [17] = tested on: NCI-H226 lung
# [18] = tested on: UO-31 renal
# [19] = tested on: HOP-62 NSCLC
# [20] = tested on: DU-145 prostate
# [21] = tested on: OVCAR-3 ovarian
# [22] = tested on: EKVX NSCLC
# [23] = tested on: SF-295 CNS
# [24] = tested on: UACC-62 melanoma
# [25] = tested on: MALME-3M melanoma
# [26] = tested on: SK-MEL-28 melanoma
# [27] = tested on: SNB-75 CNS
# [28] = tested on: TK-10 renal
# [29] = tested on: MDA-MB-231 breast
# [30] = tested on: K-562 leukemia
# [31] = tested on: A498 renal
# [32] = tested on: T-47D breast
# [33] = tested on: UACC-257 melanoma
# [34] = tested on: NCI-H460 lung
# [35] = tested on: HL-60(TB) leukemia
# [36] = tested on: NCI/ADR-RES ovarian
# [37] = tested on: HS 578T breast
# [38] = tested on: CAKI-1 renal
# [39] = tested on: MDA-MB-435
# [40] = tested on: M14 melanoma
# [41] = tested on: SW-620 colon
# [42] = tested on: SN12C renal
# [43] = tested on: HCT-15 colon
# [44] = tested on: COLO 205 colon
# [45] = tested on: SK-MEL-2 melanoma
# [46] = tested on: SF-539 CNS
# [47] = tested on: RPMI-8226 leukemia
# [48] = tested on: CCRF-CEM leukemia
# [49] = tested on: LOX IMVI melanoma
# [50] = tested on: RXF 393 renal
# [51] = tested on: NCI-H23 lung
# [52] = tested on: OVCAR-8 ovarian
# [53] = tested on: PC-3 prostate
# [54] = tested on: OVCAR-5 ovarian
# [55] = tested on: NCI-H522 lung
# [56] = tested on: SR leukemia
# [57] = tested on: U251 CNS
# [58] = tested on: HCC-2998 colon
structure (smiles),measurement,setting,value
Cc1cccc(Cc2cnc(NC(=O)CCc3ccc(C)o3)s2)c1,GI50,[1],169 nM
same,TGI,[1],4040 nM
same,GI50,[2],724 nM
same,TGI,[2],> 100000 nM
same,GI50,[3],160 nM
same,TGI,[3],> 100000 nM
same,GI50,[4],419 nM
same,TGI,[4],> 100000 nM
same,GI50,[5],555 nM
same,TGI,[5],> 100000 nM
same,GI50,[6],814 nM
same,TGI,[6],> 100000 nM
same,GI50,[7],371 nM
same,TGI,[7],> 100000 nM
same,GI50,[8],370 nM
same,TGI,[8],> 100000 nM
same,GI50,[9],7310 nM
same,TGI,[9],98700 nM
same,GI50,[10],370 nM
same,TGI,[10],> 100000 nM
same,GI50,[11],526 nM
same,TGI,[11],> 100000 nM
same,GI50,[12],242 nM
same,TGI,[12],> 100000 nM
same,GI50,[13],1230 nM
same,TGI,[13],> 100000 nM
same,GI50,[14],903 nM
same,TGI,[14],> 100000 nM
same,GI50,[15],49.5 nM
same,TGI,[15],> 100000 nM
same,GI50,[16],107 nM
same,TGI,[16],6080 nM
same,GI50,[17],8690 nM
same,TGI,[17],> 100000 nM
same,GI50,[18],589 nM
same,TGI,[18],> 100000 nM
same,GI50,[19],345 nM
same,TGI,[19],> 55600 nM
same,GI50,[20],380 nM
same,TGI,[20],> 95800 nM
same,GI50,[21],192 nM
same,TGI,[21],731 nM
same,GI50,[22],585 nM
same,TGI,[22],> 100000 nM
same,GI50,[23],195 nM
same,TGI,[23],12600 nM
same,GI50,[24],160 nM
same,TGI,[24],> 100000 nM
same,TGI,[25],> 100000 nM
same,GI50,[26],2060 nM
same,TGI,[26],> 100000 nM
same,GI50,[27],165 nM
same,TGI,[27],5670 nM
same,GI50,[28],1490 nM
same,TGI,[28],> 100000 nM
same,GI50,[29],450 nM
same,TGI,[29],23800 nM
same,GI50,[30],54.1 nM
same,TGI,[30],> 100000 nM
same,GI50,[31],343 nM
same,TGI,[31],10500 nM
same,GI50,[32],427 nM
same,TGI,[32],> 100000 nM
same,GI50,[33],15400 nM
same,TGI,[33],> 100000 nM
same,GI50,[34],263 nM
same,TGI,[34],> 100000 nM
same,GI50,[35],161 nM
same,TGI,[35],440 nM
same,GI50,[36],228 nM
same,TGI,[36],> 100000 nM
same,GI50,[37],356 nM
same,TGI,[37],> 95300 nM
same,GI50,[38],235 nM
same,TGI,[38],50800 nM
same,GI50,[39],30.2 nM
same,TGI,[39],120 nM
same,GI50,[40],136 nM
same,TGI,[40],> 41400 nM
same,GI50,[41],142 nM
same,TGI,[41],> 100000 nM
same,GI50,[42],525 nM
same,TGI,[42],> 100000 nM
same,GI50,[43],72.9 nM
same,TGI,[43],> 100000 nM
same,GI50,[44],227 nM
same,TGI,[44],716 nM
same,GI50,[45],404 nM
same,TGI,[45],> 100000 nM
same,GI50,[46],202 nM
same,TGI,[46],642 nM
same,GI50,[47],318 nM
same,TGI,[47],> 100000 nM
same,GI50,[48],234 nM
same,TGI,[48],> 100000 nM
same,GI50,[49],518 nM
same,TGI,[49],> 100000 nM
same,GI50,[50],204 nM
same,TGI,[50],3710 nM
same,GI50,[51],593 nM
same,TGI,[51],> 100000 nM
same,GI50,[52],406 nM
same,TGI,[52],> 100000 nM
same,GI50,[53],336 nM
same,TGI,[53],> 100000 nM
same,GI50,[54],798 nM
same,TGI,[54],> 100000 nM
same,GI50,[55],183 nM
same,GI50,[56],54.3 nM
same,TGI,[56],> 100000 nM
same,GI50,[57],293 nM
same,TGI,[57],> 100000 nM
same,GI50,[58],409 nM
same,TGI,[58],> 100000 nM
